Series [1] can be described thus: DPPH microplate radical scavenging antioxidant assay. It is filed as biochemical. The following applies: for IC50: DPPH, 30 min, mean ± SD (n = 3). The protocol: The antioxidant activity of the synthesized compounds was measured in terms of hydrogen-donating or radical scavenging ability using the DPPH microplate-based method. Absorbance measurement was obtained using Microplate/cuvette reader (Spectramax M5, Molecular Devices, California, USA). Reference standard compound ascorbic acid was used as the positive control for this assay at concentrations ranging from 1.563 to 200 μg/mL. Test samples were prepared at a starting concentration of 200 μg/mL after mixing with 100 μl of 0.2 mM DPPH methanolic solution. A series of concentrations were tested for the samples in order to determine the 50% inhibitory concentration (IC50). Samples were incubated with DPPH in the dark for 30 min at room temperature (25° C.). The DPPH solution in methanol was prepared daily and stored in a flask covered with aluminum foil. DPPH radicals have an absorption maximum (λmax) at 515 nm, in which the absorbance values were measured and converted into percentage of antioxidant activity.
Methanolic DPPH solution without antioxidant was applied as control and background control was samples in methanol only. IC50 was determined using Graphpad Prism 7 (Graphpad Software Inc. CA, USA). The percentage inhibition was calculated by using the formula:
The assay was carried out in triplicate and performed as much as possible in an area protected against light. The data points are presented as the mean±standard deviation (SD) (n=3).
(DPPH is a stable violet radical that fades when it is reduced.)

Series [2] has as its system Bacillus subtilis ATCC 6633. Description: Agar well diffusion, primary antimicrobial screening. Type of series: cell-based. The following applies: for zone of inhibition at 10000 µg/mL: Bacillus subtilis, ATCC6633, B. subtilis ATCC 6633, 100 μL of 10 mg/ml in DMSO, 24 h, read-out: Inhibition Diameter Zone BS; for antibacterial activity compared with reference drug: B. subtilis. An excerpt:
(§1) The newly synthesized compounds were individually tested for their in vitro antimicrobial activity against the standard bacteria strains of American Type Culture Collection (ATCC), namely, Staphylococcus aureus ATCC 29213, Bacillus subtilis ATCC 6633, Bacillus megaterium ATCC 9885 (Gram-positive), Escherichia coli ATCC 2592 and Pseudomonas aeruginosa ATCC 27953 (Gram-negative). In addition, they were microbiologically tested against the locally isolated Saccharomyces cerevisiae (yeast) and the standard strain of Agricultural Research Service Culture Collection (NRRL) of the yeast like pathogenic fungus Candida albicans NRRL Y-477. The primary screening was carried out using the agar well diffusion method using nutrient agar (NA) medium and Sabourand dextrose agar (SDA) medium for pathological tested bacteria and yeast, respectively.
(§2) Antimicrobial tests were carried out by the agar well diffusion method using 100 μL of suspension containing 1×10^8 CFU/mL of pathological tested bacteria and 1×10^6 CFU/ml of yeast spread on NA and SDA, respectively. After the media was cooled and solidified, wells (10 mm in diameter) were made in the solidified agar and loaded with 100 μL of tested compound solution prepared by dissolving 10 mg of the chemical compound in one ml of dimethyl sulfoxide (DMSO). The inculcated plates were then incubated for 24 h at 37° C. for bacteria and yeast. Negative controls were prepared using DMSO employed for dissolving the tested compound. Ciprofloxacin (10 mg/ml) and ketoconazole (10 mg/ml) were used as standard for antibacterial and antifungal activity, respectively. After incubation time, antimicrobial activity was evaluated by measuring the zone of inhibition against the test organisms and compared with that of the standard. Antimicrobial activities were expressed as inhibition diameter zones in millimeters (mm). The experiment was carried out in triplicate and the average zone of inhibition was calculated.
(In agar diffusion tests the substance spreads into inoculated agar from a disc or well.)

The subject of series [3] is Escherichia coli ATCC 2592. The series is described as above. Type of series: cell-based. Conditions: for zone of inhibition at 10000 µg/mL: Escherichia coli, ATCC2592, E. coli ATCC 2592, 100 μL of 10 mg/ml in DMSO, 24 h, read-out: Inhibition Diameter Zone EC; for antibacterial activity compared with ciprofloxacin: E. coli.
From the text: as §1, §2

In series [4] the test system is Candida albicans NRRL Y-477. The description is as above. Type of series: cell-based. Conditions: for zone of inhibition at 10000 µg/mL: Candida albicans, NRRLY477, C. albicans NRRL Y-477, 100 μL of 10 mg/ml in DMSO, 24 h, read-out: Inhibition Diameter Zone CA; for antifungal activity compared with reference drug: C. albicans.
From the text: as §1, §2

Series [5] deals with Pseudomonas aeruginosa ATCC 27953. Described as above. Type of series: cell-based. The following applies: for zone of inhibition at 10000 µg/mL: Pseudomonas aeruginosa, ATCC27953, P. aeruginosa ATCC 27953, 100 μL of 10 mg/ml in DMSO, 24 h, read-out: Inhibition Diameter Zone PA.
From the text: as §1, §2

Series [6] relates to Bacillus megaterium ATCC 9885. Described as above. Type of series: cell-based. Conditions: for zone of inhibition at 10000 µg/mL: Priestia megaterium, ATCC9885, B. megaterium ATCC 9885, 100 μL of 10 mg/ml in DMSO, 24 h, read-out: Inhibition Diameter Zone BM; for antibacterial activity compared with ciprofloxacin: B. megaterium.
From the text: as §1, §2

Series [7] has as its system Saccharomyces cerevisiae (local isolate). The series is described as above. Conditions: for zone of inhibition at 10000 µg/mL: Saccharomyces cerevisiae, 24 h, read-out: Inhibition Diameter Zone SC; for antimicrobial activity compared with ketoconazole: S. cerevisiae. It is filed as cell-based.
From the text: as §1, §2

In a further series the test system is trypsin. Briefly: Proteinase inhibitory activity (trypsin/casein). Type of series: biochemical. The following applies: for % Inhibition of proteinase activity: 250 μg/ml, mean ± SD (n = 3). How it is done: For proteinase inhibitory activity, the reaction mixture (2 ml) contained 0.06 mg trypsin, 20 mM Tris HCl buffer (pH 7.4) and 1 ml test sample (250 μg/ml for each compound). The mixture was incubated for 5 min and then 1 ml of 0.8% (w/v) casein was added. The mixture was incubated for an additional 20 min. 1 ml of 10% perchloric acid was added to arrest the reaction. The cloudy suspension was centrifuged, and the absorbance of the supernatant was read at 280 nm. Reference standard compound aspirin was used as the positive control for this assay. The experiment was performed in triplicate. Percentage inhibition of […] was calculated by using the following formula:
[formula] where Acontrol is the absorbance of the control reaction and Atest is the absorbance of the control reaction with sample.

Series [8] deals with Staphylococcus aureus ATCC 29213. Description: Agar well diffusion, primary antimicrobial screening. It is filed as cell-based. Conditions: for antibacterial activity compared with ciprofloxacin: S. aureus.
From the text: as §1, §2

Another series concerns tested microorganisms. Briefly: Agar well diffusion, summary over the tested microorganisms. It is filed as cell-based. Conditions: for antimicrobial activity compared with standard antimicrobials (ciprofloxacin and ketoconazole): against one or more microorganisms.
From the text: as §1, §2

Where [9] appears, read: S. cerevisiae local isolate, 100 μL of 10 mg/ml in DMSO.

Values after ≈ are worked out from the molar mass of the structure shown. Read-outs that look alike come from different tables or passages of the source.

As usually defined, the IC50 is the concentration that gives 50% inhibition. High values mean lower potency, low ones higher potency. One may read the melting point as the temperature, or range, at which the solid turns liquid.

`Cc1ccc2oc(=O)c3c(c2c1)OC(N=CN(C)C)=C(C#N)C3c1ccc([N+](=O)[O-])cc1` (racemic) [Compound 7a, (±)-N′-(3-cyano-9-methyl-4-(4-nitrophenyl)-5-oxo-4H,5H-pyrano[3,2-c]chromen-2-yl)-N,N-dimethylformimidamide] displayed a melting point of 279 to 281 °C. For the same molecule, in series [1], the half-inhibitory concentration (IC50) result was “— ((—): inactive (IC50 > 200 μg/mL))”. For the same molecule, the zone of inhibition at 10000 µg/mL in series [2] is under 15 mm. The zone of inhibition at 10000 µg/mL in [3] is under 15 mm. Besides, in [4], the zone of inhibition at 10000 µg/mL is under 15 mm. The zone of inhibition at 10000 µg/mL in [5] was under 15 mm. In addition, the zone of inhibition at 10000 µg/mL in [6] is under 15 mm. Further, the zone of inhibition at 10000 µg/mL in series [7] was under 15 mm. Also, the “% Inhibition of proteinase activity” value in the series with trypsin is reported as 31.99 ± 2.45%.

Regarding `O=c1oc2ccc(Cl)cc2c(O)c1S(=O)(=O)Nc1ccc(S(=O)(=O)Nc2ncccn2)cc1` [Compound 10c, 6-Chloro-4-hydroxy-2-oxo-N-(4-(N-(pyrimidin-2-yl)sulfamoyl)phenyl)-2H-chromene-3-sulfonamide], the melting point was 230 to 232 °C. In series [1], this molecule had an IC50 of 120.12 ± 4.629 µg/mL (≈ 236 µM). The “antibacterial activity compared with reference drug” value in series [2] was “higher than the reference drug”. Also, the “antibacterial activity compared with ciprofloxacin” value in [8] is given as “higher than the control ciprofloxacin”. The “antibacterial activity compared with ciprofloxacin” value in series [3] is recorded as “comparable antibacterial potential”. The “antibacterial activity compared with ciprofloxacin” value in [6] is on record as “comparable to ciprofloxacin”. The “antimicrobial activity compared with ketoconazole” value in series [7] was “higher than that of the corresponding control drug”. Further, the zone of inhibition at 10000 µg/mL in series [7] (setting [9]) came to 31 mm. Besides, the “antimicrobial activity compared with standard antimicrobials (ciprofloxacin and ketoconazole)” value in the series with tested microorganisms is listed as “equal to or higher than the standard antimicrobials”.

`Cc1ccc2oc(=O)c(S(=O)(=O)Nc3ccc(S(=O)(=O)Nc4ncccn4)cc3)c(O)c2c1` [Compound 10d, 4-hydroxy-6-methyl-2-oxo-N-(4-(N-(pyrimidin-2-yl)sulfamoyl)phenyl)-2H-chromene-3-sulfonamide] came in with a melting point of 207 to 209 °C. Also, in series [1], the IC50 amounted to 112.19 ± 4.391 µg/mL (≈ 230 µM). In addition, in series [2], the “antibacterial activity compared with reference drug” value is given as “higher than the reference drug”. Besides, the “antibacterial activity compared with ciprofloxacin” value in series [8] is “higher than the control ciprofloxacin”. In [4], the “antifungal activity compared with reference drug” value is “higher antifungal activity”. In [6], the “antibacterial activity compared with ciprofloxacin” value is “comparable to ciprofloxacin”. The “antimicrobial activity compared with ketoconazole” value in series [7] is recorded as “higher than that of the corresponding control drug”. Moreover, in series [7] (setting [9]), the zone of inhibition at 10000 µg/mL was found to be 32 mm. Besides, in the series on tested microorganisms, the “antimicrobial spectrum” value is on record as “broad-spectrum activity against all of the tested microorganisms”; the “antimicrobial activity compared with standard antimicrobials (ciprofloxacin and ketoconazole)” value was “equal to or higher than the standard antimicrobials”. In the series with trypsin, the “% Inhibition of proteinase activity” value is on record as 36.84 ± 4.87%.

In the case of `Cc1ccc2oc(=O)c(S(=O)(=O)Nc3ccc(O)cc3)c(O)c2c1` [Compound 11d, 4-Hydroxy-N-(4-hydroxyphenyl)-6-methyl-2-oxo-2H-chromene-3-sulfonamide], the melting point is 253 to 254 °C. This molecule also had an IC50 in series [1] of 4.30 ± 0.531 µg/mL (≈ 12.4 µM). Besides, the “antioxidant activity” value in series [1] (overview) is reported as “particularly high antioxidant activity”. Besides, in series [2], the “antibacterial activity compared with reference drug” value was “comparable antibacterial activities to the standard”. Further, the “antibacterial activity compared with ciprofloxacin” value in series [8] is given as “higher than the control ciprofloxacin”. Besides, the “antibacterial activity compared with ciprofloxacin” value in series [3] is on record as “higher antibacterial activity than ciprofloxacin”. Further, the “antifungal activity compared with reference drug” value in [4] is given as “higher antifungal activity”. In addition, in [5] (P. aeruginosa), the “antibacterial activity compared with standard” value is on record as “higher than that of the standard drugs”. In [7], the “antimicrobial activity compared with ketoconazole” value was “higher than that of the corresponding control drug”. Also, the zone of inhibition at 10000 µg/mL in series [7] (setting [9]) was found to be 32 mm. Further, in the series with tested microorganisms, the “antimicrobial activity compared with standard antimicrobials (ciprofloxacin and ketoconazole)” value is recorded as “equal to or higher than the standard antimicrobials”. The “% Inhibition of proteinase activity” value with trypsin was determined as 20.15 ± 7.31%.

In the case of `CC(=O)c1ccc(NS(=O)(=O)c2c(O)c3cc(C)ccc3oc2=O)cc1` [Compound 11f, N-(4-acetylphenyl)-4-hydroxy-6-methyl-2-oxo-2H-chromene-3-sulfonamide], the melting point lay within 231 to 232 °C. Also, the IC50 in series [1] came out at 35.36 ± 3.265 µg/mL (≈ 94.7 µM). For the same molecule, the zone of inhibition at 10000 µg/mL in [3] is under 15 mm. In addition, the zone of inhibition at 10000 µg/mL in series [4] was under 15 mm. The zone of inhibition at 10000 µg/mL in [5] was under 15 mm. The zone of inhibition at 10000 µg/mL in series [7] (setting [9]) is under 15 mm. For the same molecule, the “% Inhibition of proteinase activity” value in the series on trypsin is on record as 2.0 ± 1.4%.

Regarding `O=C(/C=C/c1ccc([N+](=O)[O-])cc1)c1ccc(NS(=O)(=O)c2c(O)c3cc(Cl)ccc3oc2=O)cc1` [Compound 12a, (E)-6-chloro-4-hydroxy-N-(4-(3-(4-nitrophenyl)acryloyl)phenyl)-2-oxo-2H-chromene-3-sulfonamide], the melting point is 205 to 207 °C. In addition, in series [1], the IC50 result was “— ((—): inactive (IC50 > 200 μg/mL))”. Besides, the zone of inhibition at 10000 µg/mL in series [3] was under 15 mm. Further, in series [4], the zone of inhibition at 10000 µg/mL was under 15 mm. Further, the zone of inhibition at 10000 µg/mL in series [5] was under 15 mm. In series [7] (setting [9]), the zone of inhibition at 10000 µg/mL was under 15 mm. In the series with trypsin, the “in vitro anti-proteinase activity compared with aspirin” value is “more potent” and the “% Inhibition of proteinase activity” value came to 62.14±4.87%.

As for `CC(=O)N1CCN(c2ccc(OCC3COC(Cn4ccnc4)(c4ccc(Cl)cc4Cl)O3)cc2)CC1` (stereo not shown) [Ketoconazole, ketoconazole, reference compound], the zone of inhibition at 10000 µg/mL in series [2] was under 15 mm; in [8] (Staphylococcus aureus, ATCC29213, S. aureus ATCC 29213, 100 μL of 10 mg/ml in DMSO, 24 h, read-out: Inhibition Diameter Zone SA) it was under 15 mm; in series [3], under 15 mm; in series [5], under 15 mm; in series [6], under 15 mm.

Values taken from patent US10730885B1, “Coumarin derivatives” (KING SAUD UNIVERSITY, priority 2019, dated 2020).
